Source: patent publication EP4582413A1, “ARYLTETRAHYDROPYRIDINE COMPOUND AND PEST CONTROL AGENT” (priority 2022, dated 2024)

Experiments:
Assay type in all cases: in vivo
[1] = tested on: green peach aphids (Myzus persicae); test: Insecticidal test for green peach aphids; details: Myzus persicae, foliar, 144 h; 500 ppm chemical solution sprinkled (2.5 mg/cm^2), wingless imagoes on leaf disc, six days, 25°C; read-out: death rate
Procedure: Wet absorbent cotton was laid on each glass dish having an inner diameter of 3 cm, a Chinese olive leaf cut into a circle having a diameter of 3 cm was placed thereon, and four wingless green peach aphids (Myzus persicae) imagoes were released. After a day, a 10% by mass emulsion of the presently invented compound prepared according to the above formulation example for an emulsion was diluted with water containing a spreader to prepare a chemical solution having a concentration of 500 ppm. The chemical solution prepared was sprinkled (2.5 mg/cm^2) with a rotary tower sprinkler, and the dishes were capped and accommodated in a thermostatic room at 25°C. […] The test was carried out in duplicate.

[2] = tested on: kennel ticks (Rhipicephalus sanguineus); test: Effect test for kennel ticks; details: 10 µg/cm^2 thin film in glass container, protonymphs, two days, 25°C; for mortality at 10 µg/cm2: Rhipicephalus sanguineus, 48 h, read-out: death rate
Procedure: In 1 ml of acetone, 1 mg of the presently invented compound was dissolved to prepare a chemical solution having a concentration of 1000 ppm. The bottom surface and side surface of each glass container having an inner wall surface area of 25 cm^2 were coated with 250 µl of the chemical solution, and acetone was then volatilized to form a thin film of the compound on the inner wall of the glass container.
Into each of the treated glass containers, five kennel ticks (Rhipicephalus sanguineus) protonymphs (mixed-sex) were released, and the glass containers were capped and accommodated in a thermostatic room at 25°C.

[3] = tested on: diamondback moths (Plutella xylostella); test: Insecticidal test for diamondback moths; details: Plutella xylostella, 144 h; 500 ppm chemical solution, leaves soaked, third-instar larvae, six days, 25°C; read-out: death rate
How it was run: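 Leaves dipped about 10 s in a 500 ppm aqueous dilution of an emulsion formulation with spreader, then air-dried. Five third-instar larvae released per dish and held at 25 °C. Tested in duplicate.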

[4] = tested on: cat fleas (Ctenocephalides felis); test: whole plant or invertebrate; details: 72 h, read-out: death rate
How it was run: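 Glass containers (25 cm² inner surface) were coated with 250 µl of a 1000 ppm acetone solution, and the acetone was evaporated to leave a dry film. Five mixed-sex adult fleas were confined per container at 25°C. Mortality was scored after 3 days.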

[5] = tested on: western flower thrips (Frankliniella occidentalis); test: Insecticidal activity against western flower thrips; details: Frankliniella occidentalis, 48 h; 500 ppm chemical solution sprinkled (2.5 mg/cm^2), larvae on common bean leaf, after 2 days; read-out: death rate
How it was run: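 Bean leaf squares on wet filter paper inoculated with 20 larvae. Compound emulsion diluted with spreader-containing water to 500 ppm and sprayed at 2.5 mg/cm^2 by rotary tower. Run in duplicate.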

[6] = tested on: brown rice planthoppers (Nilaparvata lugens); test: Insecticidal test for brown rice planthoppers; details: Nilaparvata lugens, 144 h; 500 ppm chemical solution, rice leaf sheaths soaked, third-instar larvae, six days, 25°C; read-out: death rate
How it was run: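 Rice leaf sheaths dipped ~10 s in 500 ppm compound solution (emulsion diluted in water with spreader), air-dried, then infested with five third-instar larvae per tube at 25 °C. Mortality scored after 6 days, death rate calculated, in duplicate.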

SMILES	mortality at 500 µg/mL [1]	mortality at 10 µg/cm2 [2]	mortality at 500 µg/mL [3]	mortality at 10 µg/cm2 [4]	mortality at 500 µg/mL [5]	mortality at 500 µg/mL [6]	death rate [2]
O=C(Nc1ccc(F)cc1)C1=C(O)CC(c2ccc(C(F)(F)F)c(-c3cccc(F)c3)c2)NC1=O (stereo not drawn) [1-006]	≥ 90%	≥ 50%	≥ 90%	≥ 50%			
O=C(Nc1ccc(F)cc1)C1=C(O)CC(c2ccc(C(F)(F)F)c(-c3ccc(F)cc3)c2)NC1=O (stereo not drawn) [1-007]	≥ 90%	≥ 50%	≥ 90%	≥ 50%	≥ 90%		
O=C(Nc1cc(F)ccn1)C1=C(O)CC(c2nc(-c3cccc(F)c3F)no2)NC1=O (stereo not drawn) [3-049]	≥ 90%		≥ 90%	≥ 50%	≥ 90%	≥ 90%	
O=C(Nc1cc(F)ccn1)C1=C(O)CC(c2nc(-c3ccccc3)no2)NC1=O (stereo not drawn) [3-055]	≥ 90%		≥ 90%	≥ 50%	≥ 90%	≥ 90%	
O=C(Nc1cc(F)ccn1)C1=C(O)CC(c2nc(-c3ccc(F)cc3)no2)NC1=O (stereo not drawn) [3-056]	≥ 90%		≥ 90%	≥ 50%	≥ 90%	≥ 90%	
O=C(Nc1cc(F)ccn1)C1=C(O)CC(c2nc(-c3ccccc3F)no2)NC1=O (stereo not drawn) [3-058]	≥ 90%		≥ 90%	≥ 50%	≥ 90%	≥ 90%	
O=C(Nc1ccc(F)cn1)C1=C(O)CC(c2nc(-c3ccc(O)nc3)no2)NC1=O (stereo not drawn) [3-101]							≥ 50%
O=C(Nc1ccc(F)cc1)C1=C(O)CC(c2nc(-c3ccc(F)cc3F)no2)NC1=O (stereo not drawn) [3-131]	≥ 90%		≥ 90%	≥ 50%	≥ 90%	≥ 90%	
O=C(Nc1ccccn1)C1=C(O)CC(c2nc(-c3ccc(F)cc3F)no2)NC1=O (stereo not drawn) [3-132]	≥ 90%		≥ 90%	≥ 50%	≥ 90%	≥ 90%	
O=C(Nc1cc(F)ccn1)C1=C(O)CC(c2nc(-c3c(F)cc(F)cc3F)no2)NC1=O (stereo not drawn) [3-144]	≥ 90%		≥ 90%	≥ 50%	≥ 90%	≥ 90%	
O=C(Nc1c(F)cccc1F)C1=C(O)CC(c2nc(-c3ccncc3F)no2)NC1=O (stereo not drawn) [3-166]	≥ 90%	≥ 50%	≥ 90%	≥ 50%		≥ 90%	
Cc1cccnc1NC(=O)C1=C(O)CC(c2nc(-c3ccc(F)cc3F)no2)NC1=O (stereo not drawn) [3-174]	≥ 90%		≥ 90%	≥ 50%	≥ 90%	≥ 90%	
O=C(Nc1ccccn1)C1=C(O)CC(c2nc(-c3ccccc3F)no2)NC1=O (stereo not drawn) [3-186]		≥ 50%	≥ 90%	≥ 50%	≥ 90%	≥ 90%	
O=C(Nc1cnccc1Cl)C1=C(O)CC(c2nc(-c3ccncc3Cl)no2)NC1=O (stereo not drawn) [3-228]	≥ 90%		≥ 90%	≥ 50%	≥ 90%	≥ 90%	
O=C(Nc1cc(Br)ccn1)C1=C(O)CC(c2nc(-c3ccncc3Cl)no2)NC1=O (stereo not drawn) [3-232]	≥ 90%		≥ 90%	≥ 50%	≥ 90%	≥ 90%	
O=C(Nc1ccc(F)cn1)C1=C(O)CC(c2nc(-c3ccncc3Cl)no2)NC1=O (stereo not drawn) [3-236]	≥ 90%		≥ 90%	≥ 50%	≥ 90%	≥ 90%	
O=C(Nc1nccs1)C1=C(O)CC(c2nc(-c3ccncc3F)no2)NC1=O (stereo not drawn) [3-246]	≥ 90%		≥ 90%	≥ 50%	≥ 90%	≥ 90%	
O=C(Nc1ccc(F)cn1)C1=C(O)CC(c2nc(-c3snc(Cl)c3Cl)no2)NC1=O (stereo not drawn) [3-254]	≥ 90%		≥ 90%	≥ 50%	≥ 90%	≥ 90%	
O=C(Nc1cnccn1)C1=C(O)CC(c2nc(-c3ccc(F)nc3)no2)NC1=O (stereo not drawn) [3-257]	≥ 90%		≥ 90%	≥ 50%	≥ 90%	≥ 90%	
O=C(Nc1ccc(F)cn1)C1=C(O)CC(c2nc(-c3ncco3)no2)NC1=O (stereo not drawn) [3-265]	≥ 90%		≥ 90%	≥ 50%	≥ 90%	≥ 90%	
O=C(Nc1cnc(Cl)cn1)C1=C(O)CC(c2nc(-c3ccnc(Cl)c3)no2)NC1=O (stereo not drawn) [3-268]	≥ 90%		≥ 90%	≥ 50%	≥ 90%	≥ 90%	
O=C(Nc1cnc(Cl)cn1)C1=C(O)CC(c2nc(-c3ccc(F)nc3)no2)NC1=O (stereo not drawn) [3-269]	≥ 90%		≥ 90%	≥ 50%	≥ 90%	≥ 90%	
